Data: patent US20230279004A1, “SOLID FORMS, SALTS, AND PROCESSES OF PREPARATION OF A CDK2 INHIBITOR” (Incyte Corporation, priority 2022, published 2023)
Marks after values point to notes of the source that are not given here.

Key:
[1] = target: T1, CDK2/Cyclin E1 (Homo sapiens, UniProt P24941); assay: CDK2/Cyclin E1 HTRF enzyme activity assay; format: biochemical; settings: 1 mM ATP
T1 construct: full-length human CDK2; GST (N); purchased Carna 04-165; host or cells: baculovirus expression system
Description: CDK2/Cyclin E1 enzyme activity assays utilize full-length human CDK2 co-expressed as N-terminal GST-tagged protein with FLAG-Cyclin E1 in a baculovirus expression system (Carna Product Number 04-165). Assays were conducted in white 384-well polystyrene plates in a final reaction volume of 8 μL. CDK2/Cyclin E1 (0.25 nM) was incubated with the compounds of the Examples (40 nL serially diluted in DMSO) in the presence of ATP (50 μM or 1 mM) and 50 nM ULight™-labeled eIF4E-binding protein 1 (THR37/46) peptide (PerkinElmer) in assay buffer (containing 50 mM HEPES pH 7.5, 1 mM EGTA, 10 mM MgCl2, 2 mM DTT, 0.05 mg/mL BSA, and 0.01% Tween 20) for 60 minutes at room temperature. The reactions were stopped by the addition of EDTA and Europium-labeled anti-phospho-4E-BP1 antibody (PerkinElmer), for a final concentration of 15 mM and 1.5 nM, respectively. HTRF signals were read after 1 hour at room temperature on a PHERAstar FS plate reader (BMG Labtech). Data was analyzed with IDBS XLFit and GraphPad Prism 5.0 software using a three or four parameter dose response curve to determine IC50 for each compound.

[2] = Solid form change on heating (DSC); format: physicochemical
Description: The DSC was obtained from TA Instruments Differential Scanning Calorimetry, Discovery DSC2500 with autosampler. The DSC instrument conditions were as follows: 20-300° C. at 10° C./min; Tzero aluminum sample pan and lid; and nitrogen gas flow at 50 mL/min.
When comparing the DSC of Form I and Form II, it was observed that Form II solids contained two peaks (FIG. 23), with the latter peak onset (≈191.0° C.) and Tmax (193.4° C.) similar to the peak onset and Tmax of Form I (FIG. 2).
The residual solvent could not be removed by conventional drying methods. […] The stoichiometric ratio of the compound of Formula (I) and 1,4-dioxane could be 4:1. The DSC of the solid (FIG. 26) contained a peak onset latter peak onset (≈192.6° C.) and Tmax (194.3° C.), which are similar to the peak onset (191.3° C.) and Tmax (193.3° C.) of Form I (FIG. 2).

[3] = Phase equilibration (XRPD of equilibrated solid); format: physicochemical; settings: Form I stirred at 25° C. for 48 hours or 50° C. for 24 hours, all solvents tested (Table 9)
Description: Phase equilibration studies were conducted to identify a predominant crystal form for phase identification. Based on its solubility in various solvent systems (Table 8), the compound of Formula (I) Form I was equilibrated in a representative groups of solvents at 25±1° C. and 50±1° C. To the solvents, the compound of Formula (I) Form I was added until a cloudy solution was obtained, then approximately 20 mg of the compound of Formula (I) Form I was added to the cloudy solution. The mixture was stirred at 25±1° C. or 50±1° C. for 48 hours or 24 hours, respectively. The solid was filtered, dried in vacuum, and analyzed by XRPD.

[4] = Solubility measurement in various solvents (HPLC); format: physicochemical; settings: for Solubility (25° C.) / solubility at 48 h: 48 h; for Solubility (50° C.) / solubility at 24 h: 24 h; for solubility at 48 h: 25 °C; for solubility at 48 h / solubility at 24 h: organic solvent or mixture; for solubility at 24 h: 50 °C
Description: 5 mL of solvent (see Table 8) was added to the individual vials. The compound of Formula (I) Form I was added to the vials to get a cloudy solution at 25° C. Another approximately 20 mg of the compound of Formula (I) Form I was added to the cloudy solution. The mixture was agitated at 25±1° C. for 48 h, which was controlled by IKA® ETS-D5 temperature controller and IKA® RCT basic safety control. The supernatant was filtered using a syringe filter (0.22 μm). The saturated solution was pipetted into HPLC vials and diluted with MeOH or acetone.
The solubility measurement at 50° C. was performed according to the following procedure. 5 mL of solvent (see Table 8) was added to the individual vials. The compound of Formula (I) Form I was added to the vials to get a cloudy solution at 50° C. Another approximately 20-25 mg of the compound of Formula (I) Form I was added. The mixture was agitated at 50±1° C. for 24 h, which was controlled by IKA® ETS-D5 temperature controller and IKA® RCT basic safety control. The supernatant was filtered quickly using a warmed syringe filter (0.22 μm) at 50±1° C. The saturated solution was pipetted into HPLC vials and diluted with MeOH or acetone.

[5] = 1,4-dioxane, thermodynamic from solid, 1,4-Dioxane
[6] = 2-methoxyethanol, thermodynamic from solid
[7] = chloroform, thermodynamic from solid
[8] = dimethylformamide, thermodynamic from solid
[9] = iso-butyl acetate, thermodynamic from solid
[10] = methyl ethyl ketone, thermodynamic from solid
[11] = tetrahydrofuran (THF), thermodynamic from solid

SMILES: CCOc1c(-c2cn[nH]c2)ccn2nc(N[C@H]3CCN(S(C)(=O)=O)C[C@H]3C)nc12 [Compound of Formula (I), 8-ethoxy-N-((3R,4S)-3-methyl-1-(methylsulfonyl)piperidin-4-yl)-7-(1H-pyrazol-4-yl)-[1,2,4]triazolo[1,5-a]pyridin-2-amine]
- IC50 [1]: ≤ 20 nM

SMILES: CCOc1c(-c2cn[nH]c2)ccn2nc(N[C@H]3CCN(S(C)(=O)=O)C[C@H]3C)nc12 [Form II, 8-ethoxy-N-((3R,4S)-3-methyl-1-(methylsulfonyl)piperidin-4-yl)-7-(1H-pyrazol-4-yl)-[1,2,4]triazolo[1,5-a]pyridin-2-amine]
- Solid form change during the heating process [2]: changed to Form I

SMILES: CCOc1c(-c2cn[nH]c2)ccn2nc(N[C@H]3CCN(S(C)(=O)=O)C[C@H]3C)nc12 [compound of Formula (I) Form I, 8-ethoxy-N-((3R,4S)-3-methyl-1-(methylsulfonyl)piperidin-4-yl)-7-(1H-pyrazol-4-yl)-[1,2,4]triazolo[1,5-a]pyridin-2-amine]
- Crystalline form for phase equilibration [3]: crystalline Form I
- Solubility (25° C.) ([4]; 1,4-Dioxane): >50* mg/mL
- Solubility (50° C.) ([4]; 1,4-Dioxane, 50° C.): >50* mg/mL
- solubility at 48 h [4, 5]: > 50 mg/mL
- solubility at 24 h [4, 5]: > 50 mg/mL
- Solubility (50° C.) ([4]; 2-Me THF/H2O/Heptane (1:1.5%:1), 50° C.): 0.6 mg/mL
- solubility at 24 h ([4]; 2-Me THF/H2O/heptane (1:1.5%:1), thermodynamic from solid, 2-Me THF/H2O/Heptane (1:1.5%:1), 50° C.): < 1 mg/mL
- Solubility (25° C.) ([4]; 2-Methoxyethanol): >50* mg/mL
- Solubility (50° C.) ([4]; 2-Methoxyethanol, 50° C.): >50* mg/mL
- Solubility (50° C.) ([4]; 2-Methyl THF, 50° C.): 18.7 mg/mL
- solubility at 48 h [4, 6]: > 50 mg/mL
- solubility at 24 h [4, 6]: > 50 mg/mL
- solubility at 24 h ([4]; 2-methyl THF, thermodynamic from solid): 15 to 50 mg/mL
- Solubility (50° C.) ([4]; 3% water in EtOH, 50° C.): 20.0 mg/mL
- solubility at 24 h ([4]; 3% water in EtOH, thermodynamic from solid): 15 to 50 mg/mL
- Solubility (25° C.) ([4]; Chloroform): >50* mg/mL
- Solubility (50° C.) ([4]; Chloroform, 50° C.): >50* mg/mL
- Solubility (25° C.) ([4]; DMSO): >50* mg/mL
- solubility at 48 h ([4]; DMSO, thermodynamic from solid): > 50 mg/mL
- Solubility (50° C.) ([4]; DMSO, 50° C.): >50* mg/mL
- solubility at 24 h ([4]; DMSO, thermodynamic from solid): > 50 mg/mL
- Solubility (25° C.) ([4]; Dichloromethane): 18.5 mg/mL
- Solubility (25° C.) ([4]; Dimethylformamide): >50* mg/mL
- Solubility (50° C.) ([4]; Dimethylformamide, 50° C.): >50* mg/mL
- Solubility (50° C.) ([4]; EtOH, 50° C.): 15.7 mg/mL
- solubility at 24 h ([4]; EtOH, thermodynamic from solid): 15 to 50 mg/mL
- Solubility (50° C.) ([4]; Ethyl formate, 50° C.): 15.2 mg/mL
- Solubility (25° C.) ([4]; MeOH): 18.7 mg/mL
- solubility at 48 h ([4]; MeOH, thermodynamic from solid): 15 to 50 mg/mL
- Solubility (25° C.) ([4]; Methyl ethyl ketone): 15.9 mg/mL
- Solubility (50° C.) ([4]; Methyl ethyl ketone, 50° C.): 25.3 mg/mL
- Solubility (25° C.) ([4]; Tetrahydrofuran (THF)): >50* mg/mL
- Solubility (50° C.) ([4]; Tetrahydrofuran (THF), 50° C.): >50* mg/mL
- Solubility (50° C.) ([4]; Toluene, 50° C.): 0.5 mg/mL
- solubility at 48 h [4, 7]: > 50 mg/mL
- solubility at 24 h [4, 7]: > 50 mg/mL
- solubility at 48 h ([4]; dichloromethane, thermodynamic from solid): 15 to 50 mg/mL
- solubility at 48 h [4, 8]: > 50 mg/mL
- solubility at 24 h [4, 8]: > 50 mg/mL
- solubility at 24 h ([4]; ethyl formate, thermodynamic from solid): 15 to 50 mg/mL
- Solubility (25° C.) ([4]; iso-Butyl acetate): 1.1 mg/mL
- Solubility (50° C.) ([4]; iso-Butyl acetate, 50° C.): 1.6 mg/mL
- Solubility (25° C.) ([4]; iso-Propyl acetate): 1.8 mg/mL
- solubility at 48 h [4, 9]: 1 to 15 mg/mL
- solubility at 24 h [4, 9]: 1 to 15 mg/mL
- solubility at 48 h ([4]; iso-propyl acetate, thermodynamic from solid): 1 to 15 mg/mL
- solubility at 48 h [4, 10]: 15 to 50 mg/mL
- solubility at 24 h [4, 10]: 15 to 50 mg/mL
- solubility at 48 h [4, 11]: > 50 mg/mL
- solubility at 24 h [4, 11]: > 50 mg/mL
- solubility at 24 h ([4]; toluene, thermodynamic from solid): < 1 mg/mL
